The inhibition is the relative decrease from the control value, in per cent. Lower therefore signals little suppression. What is called IC50 is the concentration needed to halve the response being measured.

One assay relates to Crohn's patients. To be noted: transient, returning to baseline by week 8; cited from earlier work.
The next assay deals with mitosis in PBMCs. Briefly: (g) Cell mitosis assay. It counts as cell-based. To be noted: Homo sapiens, PBMC, 5 μg/mL. The method in brief:
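Healthy-donor PBMCs stimulated with 2% PHA for 48 hr, then exposed to test compounds at varying concentrations for 20 hr; demecolcine (0.1 μg/mL) added 2 hr before collection for metaphase arrest. Cells fixed/permeabilized, stained with anti-phospho-histone 3 and propidium iodide; mitotic cells counted by flow cytometry gating on lymphocytes.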

The target in the next assay is GSK 3α (Homo sapiens (Human), UniProt P49840). Briefly: GSK 3α enzyme inhibition (Method 2), Z-LYTE FRET. It counts as biochemical. The settings on record: read-out: IC50 Values for Enzyme Inhibition GSK3α. On the procedure:
The enzyme inhibitory activities of compounds disclosed herein are determined by FRET using synthetic peptides labelled with both donor and acceptor fluorophores (Z-LYTE, Invitrogen Ltd., Paisley, UK).
The following two assay variants can be used for determination of GSK 3α inhibition.
The inhibitory activities of compounds of the invention against the GSK 3α enzyme isoform (Invitrogen), are evaluated by determining the level of activation/phosphorylation of the target peptide. The GSK3-α protein (500 ng/mL, 2.5 μL) is mixed with the test compound (2.5 μL at either 4 μg/mL, 0.4 μg/mL, 0.04 μg/mL, or 0.004 μg/mL) for 2 hr at RT. The FRET peptide (8 μM, 2.5 μL), which is a phosphorylation target for GSK3α, and ATP (40 μM, 2.5 μL) are then added to the enzyme/compound mixture and the resulting mixture incubated for 1 hr. Development reagent (protease, 5 μL) is added for 1 hr prior to detection in a fluorescence microplate reader (Varioskan® Flash, ThermoFisher Scientific).
In all cases, the site-specific protease cleaves non-phosphorylated peptide only and eliminates the FRET signal. Phosphorylation levels of each reaction are calculated using the ratio of coumarin emission (donor) over fluorescein emission (acceptor), for which high ratios indicate high phosphorylation and low ratios indicate low phosphorylation levels.
This method follows the same steps as Method 1 above, but utilises a shorter period of mixing of the test compound (105 minutes instead of 2 hours) with the GSK3-α protein. In addition, the concentrations of test compound employed are either 10 μg/mL, 1 μg/mL, 0.1 μg/mL, or 0.01 μg/mL

A further assay has as its target c-Src (Homo sapiens (Human), UniProt P12931). Put plainly: c-Src enzyme inhibition, Z-LYTE FRET. It counts as biochemical. The method in brief:
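Z-LYTE FRET peptide phosphorylation read as donor coumarin over acceptor fluorescein ratio after 1 hr protease development. Compounds (1–0.001 μg/mL) preincubated 2 hr at RT with enzyme; ATP solutions 60 μM for Syk, 800 μM for c-Src; kinase reaction 1 hr.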

In a further assay the target is Syk (Homo sapiens (Human), UniProt P43405). Put plainly: Syk enzyme inhibition, Z-LYTE FRET. It counts as biochemical. The method in brief: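 Syk or c-Src enzyme (3000 or 2000 ng/mL solutions) was preincubated 2 h at RT with compound solutions at 1, 0.1, 0.01 or 0.001 µg/mL. Z-LYTE FRET peptide (8 µM solution) and ATP (800 µM solution for c-Src, 60 µM for Syk) were then added for 1 h, followed by protease development for 1 h. Phosphorylation was read as the coumarin/fluorescein emission ratio.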

The subject of assay [1] is rheumatoid arthritis patients. To be noted: cited from earlier work.
Assay [2] has as its system patients with severe Crohn's disease. To be noted: over 8 weeks; cited from earlier work.

Chain of c-Src (P12931 whole entry, looked up): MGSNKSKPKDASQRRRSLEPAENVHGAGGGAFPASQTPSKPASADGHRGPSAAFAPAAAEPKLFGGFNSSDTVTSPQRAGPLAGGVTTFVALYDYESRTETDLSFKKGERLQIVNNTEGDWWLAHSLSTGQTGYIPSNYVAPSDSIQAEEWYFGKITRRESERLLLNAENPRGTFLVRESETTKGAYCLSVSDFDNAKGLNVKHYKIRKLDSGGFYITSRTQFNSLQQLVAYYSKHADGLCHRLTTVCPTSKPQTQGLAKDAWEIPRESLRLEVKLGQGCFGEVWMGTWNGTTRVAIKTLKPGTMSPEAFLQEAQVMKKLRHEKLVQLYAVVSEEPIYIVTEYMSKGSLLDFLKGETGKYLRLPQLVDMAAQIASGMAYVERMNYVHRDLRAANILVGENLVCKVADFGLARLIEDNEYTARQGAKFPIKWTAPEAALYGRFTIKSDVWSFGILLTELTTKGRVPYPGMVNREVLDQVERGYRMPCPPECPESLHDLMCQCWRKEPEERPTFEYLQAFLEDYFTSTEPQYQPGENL
Chain of GSK 3α (P49840 whole entry): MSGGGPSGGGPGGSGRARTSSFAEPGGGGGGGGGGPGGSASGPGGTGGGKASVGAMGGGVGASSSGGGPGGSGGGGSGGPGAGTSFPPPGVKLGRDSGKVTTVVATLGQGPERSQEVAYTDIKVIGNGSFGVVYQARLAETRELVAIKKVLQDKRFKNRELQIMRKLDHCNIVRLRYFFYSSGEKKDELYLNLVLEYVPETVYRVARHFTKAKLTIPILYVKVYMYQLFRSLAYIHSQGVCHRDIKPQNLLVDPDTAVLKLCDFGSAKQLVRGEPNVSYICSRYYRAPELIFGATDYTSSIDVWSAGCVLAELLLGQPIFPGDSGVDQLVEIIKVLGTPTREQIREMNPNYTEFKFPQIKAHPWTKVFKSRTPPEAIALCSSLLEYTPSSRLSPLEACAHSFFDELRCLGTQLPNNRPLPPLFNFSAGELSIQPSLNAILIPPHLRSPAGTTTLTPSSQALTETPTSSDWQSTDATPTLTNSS

On to `Cc1ccc(-n2nc(C(C)(C)C)cc2NC(=O)Nc2ccc(OCCN3CCOCC3)c3ccccc23)cc1` [BIRB796], for which the “clinical benefit, C-reactive protein levels” value with Crohn's patients is “improvement in C-reactive protein levels”.

As for `COc1cc(Nc2cc(Oc3ccc(NC(=O)Nc4cc(C(C)(C)C)cc(NS(C)(=O)=O)c4OC)c4ccccc34)ccn2)ccc1C(=O)NCCN1CCN(C)CC1` [17(a), 4-[[4-[[4-[[5-tert-butyl-3-(methanesulfonamido)-2-methoxy-phenyl]carbamoylamino]-1-naphthyl]oxy]-2-pyridyl]amino]-2-methoxy-N-[2-(4-methylpiperazin-1-yl)ethyl]benzamide], in the assay on mitosis in PBMCs, the inhibition at 5 µg/mL was determined as 75.6%. In addition, the IC50 at GSK 3α stood at 4000 nM; on c-Src it was 16 nM.

In turn, `COc1cc(Nc2cc(Oc3ccc(NC(=O)Nc4cc(C(C)(C)C)cc(NS(C)(=O)=O)c4OC)c4ccccc34)ccn2)ccc1C(=O)NCCCN1CCS(=O)(=O)CC1` [17(ah), 4-[[4-[[4-[[5-tert-butyl-3-(methanesulfonamido)-2-methoxy-phenyl]carbamoylamino]-1-naphthyl]oxy]-2-pyridyl]amino]-N-[3-(1,1-dioxo-1,4-thiazinan-4-yl)propyl]-2-methoxy-benzamide] registered an inhibition at 5 µg/mL in the assay with mitosis in PBMCs of 32.5%. The IC50 against Syk is 57 nM; at GSK 3α, 9190 nM; against c-Src, 20 nM.

On to `COc1cc(Nc2ncc(F)c(Nc3ccc4c(n3)N(COP(=O)(O)O)C(=O)C(C)(C)O4)n2)cc(OC)c1OC` [Fostamatinib], for which, in assay [1], the clinical outcome is on record as “improved clinical outcome”; the “serum levels of IL-6 and MMP-3” value was “reduced serum levels of IL-6 and MMP-3”.

The compound `COc1cc(Nc2cc(Oc3ccc(NC(=O)Nc4cc(C(C)(C)C)cc(NS(C)(=O)=O)c4OC)c4ccccc34)ccn2)ccc1C(=O)NCCCN1CC[S+]([O-])CC1` [17(ag), 4-[[4-[[4-[[5-tert-butyl-3-(methanesulfonamido)-2-methoxy-phenyl]carbamoylamino]-1-naphthyl]oxy]-pyridyl]amino]-2-methoxy-N-[3-(1-oxo-1,4-thiazan-4-yl)propyl]benzamide] came in with an inhibition at 5 µg/mL with mitosis in PBMCs of 51.8%. The half-inhibitory concentration (IC50) on Syk was 105 nM; on GSK 3α it was 2740 nM; on c-Src, 17 nM.

In the case of `C/C(=N\N=C(N)N)c1cc(NC(=O)CCCCCCCCC(=O)Nc2cc(/C(C)=N/N=C(N)N)cc(/C(C)=N/N=C(N)N)c2)cc(/C(C)=N/N=C(N)N)c1.Cl.Cl.Cl.Cl` [CNI-1493], the clinical score result in assay [2] was “significant improvement in clinical score”.
